Measured values: EP4741383A1, “COMPOUND AND USE THEREOF AS ANTI-CANCER DRUG” (Tyligand Bioscience (Shanghai) Limited, priority 2023, dated 2025)

Experiments:
[1] = molecular target: T1, SHP2 enzyme (catalytic domain, amino acid sequence 224-528) (Homo sapiens, UniProt Q06124); assay: SHP2 enzyme inhibition assay (DiFMUP substrate, fluorescence); format: biochemical; details: for IC50: SHP2 catalytic domain, DiFMUP substrate, 30 min pre-incubation, read-out: S HP2 I C50
T1 construct: purchased GenScript
T1 sequence (Q06124 224-528): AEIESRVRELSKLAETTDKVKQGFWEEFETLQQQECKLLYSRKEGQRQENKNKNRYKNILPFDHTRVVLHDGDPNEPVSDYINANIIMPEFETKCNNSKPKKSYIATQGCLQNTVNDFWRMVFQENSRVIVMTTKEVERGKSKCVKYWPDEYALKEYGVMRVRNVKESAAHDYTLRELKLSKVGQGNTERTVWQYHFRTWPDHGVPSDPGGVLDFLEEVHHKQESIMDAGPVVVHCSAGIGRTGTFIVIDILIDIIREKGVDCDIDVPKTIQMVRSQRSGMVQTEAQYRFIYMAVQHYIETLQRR
Description: This experiment evaluates the inhibitory effect of the test compounds on SHP2 enzyme activity by detecting the reaction between the human recombinant protein SHP2 enzyme and the substrate.
The stock solutions of the reaction buffer components were thawed and mixed homogeneously at room temperature, to prepare the reaction buffer (55 mM HEPES pH = 7.2 (Sigma, Cat. No. #PHR1428), 100 mM NaCl (Beyotime, Cat. No. #ST374, 5 M solution), 0.5 mM EDTA (Beyotime, Cat. No. #ST066), 1 mM DL-Dithiothreitol (DTT) (Sigma, Cat. No. #D9779), 0.002% BSA (Solarbio, Cat. No. #A8010), 0.001% Brij35 (Brij® L23 solution (Brij35) (Sigma, Cat. No. #B4184)). The SHP2 enzyme (catalytic domain, amino acid sequence 224-528, expressed and purified by GenScript) was thawed slowly on ice. 1 µL of this solution (1.37 mg/mL) was added to 386 µL of the reaction buffer to dilute it to 100 nM. Then, 120 µL of the 100 nM SHP2 enzyme solution was added to 2880 µL of reaction buffer to prepare a 4 nM SHP2 enzyme working solution. The test compounds and the specific inhibitor of SHP2 (11a-1, used as a positive control, Zeng, L. et al., J. Med. Chem. 2014, 57, 6594-6609) were prepared as 10 mM DMSO solutions. 10 µL of the 10 mM compound solution was mixed with 20 µL of DMSO solution, and then serially diluted 3-fold, resulting in 10 concentrations. 1 µL of the serially diluted solution was mixed with 99 µL of reaction buffer to obtain a 10-fold diluted compound working solution.
A 96-well black half-area microplate (Greiner, catalog #675076) was used. 25 µL of 4 nM SHP2 enzyme working solution and 5 µL of 10x compound working solution were added to each well and incubated at room temperature for 30 minutes. 15 µL of DiFMUP substrate (Thermo Fisher Scientific, catalog #D6567) was added to 2985 µL of reaction buffer to prepare a 50 µM substrate working solution. After incubation of the compounds and SHP2 enzyme, 20 µL of the 50 µM substrate working solution was added to each well and incubated at room temperature for 5 minutes. The plate was then read on a multi-mode microplate reader (BioTek, Synergy H1) at 340 nm/450 nm fluorescence.
Data were analyzed using GraphPad Prism 9.0 software. A non-linear S-curve regression dose-response-inhibition equation was used to fit the data and generate the dose-response curve, from which the IC50 value was calculated. [formula]

KYSE520 = assay: CellTiter-Glo cell proliferation inhibition, KYSE520; format: cell-based, human; details: Homo sapiens, KYSE-520; KYSE520 cells, 120 hours, CellTiter-Glo
From the text: In this study, the CellTiter-Glo® Luminescent Cell Viability Assay kit from Promega was used to evaluate the inhibitory effects of the disclosed compounds on the proliferation of cell lines KYSE520 (a human esophageal squamous cell carcinoma cell line dependent on SHP2 for growth), MeWo (a human malignant melanoma cell line), and MV4-11 (an RTK-mutant human acute monocytic leukemia cell line).
KYSE520 cells (Nanjing Kebaio Biotechnology Co., Ltd., Catalog #CBP60658) were thawed by rapidly shaking the cryovial in a 37 °C water bath to thaw within 1 minute. The thawed cell suspension was mixed homogeneously with RPMI 1640 medium (HyClone, Catalog #SH30027.01) containing 10% FBS (ExCell, Catalog #FND500), centrifuged at 1000 rpm for 5 minutes, and the supernatant was discarded. The cell pellet was resuspended in 5 mL of complete culture medium (RPMI 1640 medium containing 10% FBS) and placed in a cell culture flask with 25 cm^2 of bottom area, then cultured in a cell culture incubator at 37 °C, 95% humidity, and 5% CO2. Cell passaging was performed when the cell confluence reached approximately 80%. During cell passaging, the old culture medium was discarded, the cells were washed once with DPBS (Thermo Fisher, Catalog #14190-144), and 1 mL of trypsin (Thermo Fisher, Catalog #25200072) was added to digest the cells. When the cells dispersed into single cells and detached from the bottom of the culture flask, 3 mL of fresh complete culture medium was added to stop the digestion. After gently pipetting the cell suspension, 1/5 of the cell suspension was retained, 5 mL of fresh complete culture medium was added, and after mixing, the cells were placed in a cell culture flask for further culture. Cell plating was performed when the cell confluence again reached approximately 80%. During cell plating, following the cell passaging method, 1/5 of the cell suspension was retained for continued culture, and the remaining 4/5 of the cell suspension was placed in a 15 mL centrifuge tube. Cell viability was determined using the trypan blue exclusion method to ensure that cell viability was above 90%. A cell suspension with a density of 2.22 × 10^4 cells/mL was prepared using complete culture medium, and 135 µL of the cell suspension was added to a 96-well transparent flat-bottom black-walled cell culture plate (Greiner, Catalog #655090), resulting in a cell density of 3000 viable cells per well. A control group containing only complete culture medium without cells and compounds (i.e., culture medium control) and a control group containing cells but no compound (i.e., cell control) were set up. The cell plates were incubated overnight in a cell culture incubator. First, a 10 mM stock solution of the compound (Example compound and positive control compound 11a-1) in DMSO (Damas-beta, catalog #75927R) was serially diluted 3-fold to the 9th concentration, and a 10th concentration containing only DMSO (without compound) was also prepared as a control. Then, the DMSO solutions containing different concentrations of the compound were diluted 100-fold with complete culture medium, resulting in a 1% DMSO concentration in each solution. Finally, 15 µL of each solution was added to the corresponding wells of the cell culture plate, resulting in a starting compound concentration of 10 µM, with a 3-fold dilution between adjacent concentrations, and a final DMSO concentration of 0.1% in the cell culture plate. The cell plates were then incubated in the cell culture incubator for another 120 hours.
For endpoint detection, CellTiter-Glo reagent (Promega, catalog number #G7573, CellTiter-Glo® Luminescent Cell Viability Assay Kit) was melt and each cell plate was moved to room temperature for equilibration for 30 minutes. 75 µL (KYSE520 cells) or 50 µL (MeWo cells and MV 4-11 cells) of CellTiter-Glo was added to each well of the corresponding cell plate. The plates were shaken on a track-mounted shaker for 2 minutes to fully lyse the cells. […]

| Structure (SMILES) | IC50 [1] | SHP2 IC50 times lower than control compound 11a-1 ([1]; relative to 11a-1, IC50 = 0.108 µM) | IC50 (KYSE520) |
| --- | --- | --- | --- |
| O=C(Nc1ccc(-c2cc3cc(F)c(-c4nnn[nH]4)cc3n2C2CCC2)cc1)C(=O)Nc1ccc(N2CCC3(CCC(CO)C3)CC2)cc1 (stereo not shown) [Example 106] | 103 nM |  | 0.11 µM |
| CC1(n2c(-c3ccc(NC(=O)C(=O)Nc4ccc(N5CCC6(CCC(CO)C6)CC5)cc4)cc3)cc3cc(F)c(-c4nnn[nH]4)cc32)CCC1 (stereo not shown) [Example 107] | 138 nM |  | 0.101 µM |
| CC1(n2c(-c3ccc(NC(=O)C(=O)Nc4ccc(N5CC6CC(CO)CC6C5)cc4)cc3)cc3cc(F)c(-c4nnn[nH]4)cc32)CCC1 (stereo not shown) [Example 120] | 55 nM |  | 0.115 µM |

More lines, main results first:

| IC50 [1] | SHP2 IC50 times lower than control compound 11a-1 ([1]; relative to 11a-1, IC50 = 0.108 µM) | Structure (SMILES) | IC50 (KYSE520) |
| --- | --- | --- | --- |
| 114 nM |  | CC1(n2c(-c3ccc(NC(=O)C(=O)Nc4ccc(N5CCC6(CCC(CO)CC6)CC5)cc4)cc3)cc3cc(F)c(-c4nnn[nH]4)cc32)CCC1 [Example 113] | 0.116 µM |
| 36 nM | 3-4 times | CC1(n2c(-c3ccc(NC(=O)C(=O)Nc4ccc(N5CC6COCC6C5)cc4)cc3)cc3cc(F)c(-c4nnn[nH]4)cc32)CCC1 (stereo not shown) [Example 115] | 0.11 µM |
| 55 nM |  | O=C(Nc1ccc(-c2cc3cc(F)c(-c4nnn[nH]4)cc3n2C2CCC2)cc1)C(=O)Nc1ccc(N2CC3CC(CO)CC3C2)cc1 (stereo not shown) [Example 119] | 0.105 µM |
